Twelve molecules from patent US11427548B2 (Arvinas Operations, Inc., priority 2015, dated 2022) can be followed below.

Read-outs that look alike come from different tables or passages of the source.

The experiment addresses T1, Androgen Receptor (Homo sapiens, UniProt P10275).
T1 construct: endogenous in cells; host or cells: VCaP cells
T1 sequence (P10275 1-920): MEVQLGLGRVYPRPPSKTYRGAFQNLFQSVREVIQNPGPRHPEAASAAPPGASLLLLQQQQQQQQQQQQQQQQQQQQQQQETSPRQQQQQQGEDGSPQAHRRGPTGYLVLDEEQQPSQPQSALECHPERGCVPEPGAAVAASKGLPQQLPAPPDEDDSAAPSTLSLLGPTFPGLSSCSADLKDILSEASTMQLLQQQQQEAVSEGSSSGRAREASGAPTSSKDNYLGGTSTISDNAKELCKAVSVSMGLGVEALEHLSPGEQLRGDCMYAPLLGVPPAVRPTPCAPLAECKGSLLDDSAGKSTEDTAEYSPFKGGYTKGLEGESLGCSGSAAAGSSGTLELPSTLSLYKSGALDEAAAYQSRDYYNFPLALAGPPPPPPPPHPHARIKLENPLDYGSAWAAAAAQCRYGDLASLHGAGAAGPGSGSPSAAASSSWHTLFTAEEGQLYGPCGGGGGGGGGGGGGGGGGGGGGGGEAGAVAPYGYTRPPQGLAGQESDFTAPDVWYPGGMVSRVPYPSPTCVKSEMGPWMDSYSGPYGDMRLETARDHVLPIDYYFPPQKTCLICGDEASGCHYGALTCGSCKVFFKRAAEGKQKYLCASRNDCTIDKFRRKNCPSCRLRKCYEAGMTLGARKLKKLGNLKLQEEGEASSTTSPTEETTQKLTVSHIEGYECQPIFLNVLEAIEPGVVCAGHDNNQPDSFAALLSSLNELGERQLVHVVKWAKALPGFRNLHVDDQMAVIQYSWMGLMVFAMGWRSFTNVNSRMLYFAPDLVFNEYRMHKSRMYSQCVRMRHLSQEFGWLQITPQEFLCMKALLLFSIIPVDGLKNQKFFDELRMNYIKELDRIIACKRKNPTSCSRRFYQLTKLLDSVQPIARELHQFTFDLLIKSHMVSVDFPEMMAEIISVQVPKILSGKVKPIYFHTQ
The experiment in a line: Androgen Receptor ELISA assay (PathScan AR ELISA) in VCaP cells: AR degradation, Dmax and DC50. The experiment is classed as cell-based. As to conditions: Table 36; for DC50: read-out: VCaP DC50; for Dmax: VCaP. In a few lines: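 VCaP cells, 30,000/well, grown ≥3 days in phenol red-free RPMI with 5% charcoal-stripped FBS; compound added in 0.1% DMSO with 0.1 nM R1881, 7 half-log doses, 24 h. Lysate AR quantified by PathScan sandwich ELISA, HRP/TMB read at 450 nm, giving DC50 and Dmax.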
In general terms: ELISA stands for enzyme-linked immunosorbent assay.

[1] abbreviates: VCaP cells, read-out: VCaP Dmax (%).

With `Cc1ncsc1-c1ccc(CNC(=O)[C@@H]2C[C@@H](O)CN2C(=O)[C@H](C(C)C)N2Cc3ccc(N4CCN(CCCc5ccc(C(=O)N[C@H]6C(C)(C)[C@H](Oc7ccc(C#N)c(C(F)(F)F)c7)C6(C)C)cc5)CC4)cc3C2=O)cc1` [Example 762, (2S,4R)-1-((S)-2-(6-(4-(3-(4-(((1r,3r)-3-(4-cyano-3-(trifluoromethyl)phenoxy)-2,2,4,4-tetramethylcyclobutyl)carbamoyl)phenyl)propyl)piperazin-1-yl)-1-oxoisoindolin-2-yl)-3-methylbutanoyl)-4-hydroxy-N-(4-(4-methylthiazol-5-yl)benzyl)pyrrolidine-2-carboxamide], the 50% degradation concentration (DC50) – broadly, the concentration giving 50% degradation – (VCaP cells) is over 501 nM. Also, the Dmax (in general, the largest share of the target that was removed) (read-out: VCaP Dmax (%), VCaP cells) was under 25%.
Regarding `Cc1ncsc1-c1ccc([C@H](C)NC(=O)[C@@H]2C[C@@H](O)CN2C(=O)[C@@H](NC(=O)CCCCCCCc2ccc(C(=O)N[C@H]3C(C)(C)[C@H](Oc4ccc(C#N)c(Cl)c4)C3(C)C)cc2)C(C)(C)C)cc1` [Example 763, (2S,4R)-1-((S)-2-(8-(4-(((1r,3r)-3-(3-chloro-4-cyanophenoxy)-2,2,4,4-tetramethylcyclobutyl)carbamoyl)phenyl)octan-amido)-3,3-dimethylbutanoyl)-4-hydroxy-N-((S)-1-(4-(4-methylthiazol-5-yl)phenyl)ethyl)pyrrolidine-2-carboxamide], the DC50 (VCaP cells) is under 50 nM. Besides, under setting [1], the greatest degradation seen (Dmax) was over 71%.
As for `Cc1ncsc1-c1ccc([C@H](C)NC(=O)[C@@H]2C[C@@H](O)CN2C(=O)[C@@H](NC(=O)CCCCCCCCCc2ccc(C(=O)N[C@H]3C(C)(C)[C@H](Oc4ccc(C#N)c(Cl)c4)C3(C)C)cc2)C(C)(C)C)cc1` [Example 764, (2S,4R)-1-((S)-2-(10-(4-(((1r,3r)-3-(3-chloro-4-cyanophenoxy)-2,2,4,4-tetramethylcyclobutyl)carbamoyl)phenyl)decan-amido)-3,3-dimethylbutanoyl)-4-hydroxy-N-((S)-1-(4-(4-methylthiazol-5-yl)phenyl)ethyl)pyrrolidine-2-carboxamide], where the note is “VCaP cells”, the DC50 lay within 51 to 500 nM. Under setting [1], the Dmax lay within 51 to 70%.
As to `Cc1ncsc1-c1ccc([C@H](C)NC(=O)[C@@H]2C[C@@H](O)CN2C(=O)[C@@H](NC(=O)COCCN2CCN(c3ccc(C(=O)N[C@H]4C[C@H](Oc5ccc(C#N)c(Cl)c5)C4)cn3)CC2)C(C)(C)C)cc1` [Example 765, N-((1r,3r)-3-(3-chloro-4-cyanophenoxy)cyclobutyl)-6-(4-(2-(2-(((S)-1-((2S,4R)-4-hydroxy-2-(((S)-1-(4-(4-methylthiazol-5-yl)phenyl)ethyl)carbam-oyl)pyrrolidin-1-yl)-3,3-dimethyl-1-oxobutan-2-yl)amino)-2-oxoethoxy)ethyl)pipera-zin-1-yl)nicotinamide], where the note is “VCaP cells”, the DC50 was over 501 nM. Also, the Dmax under setting [1] is under 25%.
The matching figures for `Cc1ncsc1-c1ccc([C@H](C)NC(=O)[C@@H]2C[C@@H](O)CN2C(=O)[C@@H](NC(=O)CN2CCN(CCCOCc3cc(C(=O)N[C@@H](C)Cn4ccc(-c5ccc(C#N)c(C(F)(F)F)c5)n4)n[nH]3)CC2)C(C)(C)C)cc1` [Example 766]: over 501 nM and 26 to 50%.
The matching figures for `Cc1nc(-c2ccn(C[C@H](C)NC(=O)c3cc(COCCCN4CCN(CC(=O)N[C@H](C(=O)N5C[C@H](O)C[C@H]5C(=O)N[C@@H](C)c5ccc(-c6scnc6C)cc5)C(C)(C)C)CC4)[nH]n3)n2)ccc1C#N` [Example 767, N-((S)-1-(3-(5-cyano-6-methylpyridin-2-yl)-1H-pyrazol-1-yl)propan-2-yl)-5-((3-(4-(2-(((S)-1-((2S,4R)-4-hydroxy-2-(((S)-1-(4-(4-methylthiazol-5-yl)phenyl)ethyl)carbam-oyl)pyrrolidin-1-yl)-3,3-dimethyl-1-oxobutan-2-yl)amino)-2-oxoethyl)piperazin-1-yl)propoxy)methyl)-1H-pyrazole-3-carboxamide]: over 501 nM and 26 to 50%.
The matching figures for `Cc1ncsc1-c1ccc([C@H](C)NC(=O)C2C[C@@H](O)CN2C(=O)C(NC(=O)CCCN2CCN(c3ccc(C(=O)N[C@H]4C(C)(C)[C@H](Oc5ccc(C#N)c(Cl)c5)C4(C)C)cn3)CC2)C(C)(C)C)cc1` (stereo partly drawn) [Example 768, N-((1r,3r)-3-(3-chloro-4-cyanophenoxy)-2,2,4,4-tetramethylcyclobutyl)-6-(4-(4-(((S)-1-((2S,4R)-4-hydroxy-2-(((S)-1-(4-(4-methylthiazol-5-yl)phenyl)ethyl)carbam-oyl)pyrrolidin-1-yl)-3,3-dimethyl-1-oxobutan-2-yl)amino)-4-oxobutyl)piperazin-1-yl)nicotinamide]: over 501 nM and under 25%.
On to `CC(C)[C@H](C(=O)N1C[C@H](O)C[C@H]1C(=O)NCc1ccc(Cl)cc1)N1Cc2ccc(N3CCN(CCCc4ccc(C(=O)N[C@H]5C(C)(C)[C@H](Oc6ccc(C#N)c(C(F)(F)F)c6)C5(C)C)cc4)CC3)cc2C1=O` [Example 769, (2S,4R)-N-(4-chlorobenzyl)-1-((R)-2-(6-(4-(3-(4-(((1r,3r)-3-(4-cyano-3-(trifluoromethyl)phenoxy)-2,2,4,4-tetramethylcyclobutyl)carbamoyl)phenyl)propyl)piperaizn-1-yl)-1-oxoisoindolin-2-yl)-3-methylbutanoyl)-4-hydroxypyrrolidine-2-carboxamide], for which the DC50 (VCaP cells) is over 501 nM. The Dmax under setting [1] was under 25%.
As for `CC(C)[C@@H](C(=O)N1C[C@H](O)C[C@H]1C(=O)NCc1ccc(Cl)cc1)N1Cc2ccc(N3CCN(CCCc4ccc(C(=O)N[C@H]5C(C)(C)[C@H](Oc6ccc(C#N)c(C(F)(F)F)c6)C5(C)C)cc4)CC3)cc2C1=O` [Example 770, (2S,4R)-N-(4-chlorobenzyl)-1-((S)-2-(6-(4-(3-(4-(((1r,3r)-3-(4-cyano-3-(trifluoromethyl)phenoxy)-2,2,4,4-tetramethylcylcobutyl)carbamoyl)phenyl)propyl)piperazin-1-yl)-1-oxoisoindolin-2-yl)-3-methylbutanoyl)-4-hydroxypyrrolidine-2-carboxamide], the DC50 (VCaP cells) is over 501 nM. The Dmax under setting [1] is under 25%.
The matching figures for `CC(C)[C@H](C(=O)N1C[C@H](O)C[C@H]1C(=O)NCc1ccc(C#N)cc1)N1Cc2ccc(N3CCN(CCCc4ccc(C(=O)N[C@H]5C(C)(C)[C@H](Oc6ccc(C#N)c(C(F)(F)F)c6)C5(C)C)cc4)CC3)cc2C1=O` [Example 771, (2S,4R)-1-((R)-2-(6-(4-(3-(4-(((1r,3r)-3-(4-cyano-3-(trifluoromethyl)phenoxy)-2,2,4,4-tetramethylcyclobutyl)carbamoyl)phenyl)propyl)piperazin-1-yl)-1-oxoisoindolin-2-yl)-3-methylbutanoyl)-N-(4-cyanobenzyl)-4-hydroxypyrrolidine-2-carboxamide]: over 501 nM and under 25%.
The matching figures for `CC(C)[C@@H](C(=O)N1C[C@H](O)C[C@H]1C(=O)NCc1ccc(C#N)cc1)N1Cc2ccc(N3CCN(CCCc4ccc(C(=O)N[C@H]5C(C)(C)[C@H](Oc6ccc(C#N)c(C(F)(F)F)c6)C5(C)C)cc4)CC3)cc2C1=O` [Example 772, (2S,4R)-1-((S)-2-(6-(4-(3-(4-(((1r,3r)-3-(4-cyano-3-(trifluoromethyl)phenoxy)-2,2,4,4-tetramethylcyclobutyl)carbamoyl)phenyl)propyl)piperazin-1-yl)-1-oxoisoindolin-2-yl)-3-methylbutanoyl)-N-(4-cyanobenzyl)-4-hydroxypyrrolidine-2-carboxamide]: over 501 nM and under 25%.
The matching figures for `Cc1ncsc1-c1ccc(CNC(=O)[C@@H]2C[C@@H](O)CN2C(=O)[C@@H](C(C)C)N2Cc3ccc(N4CCN(CCCc5ccc(C(=O)N[C@H]6C(C)(C)[C@H](Oc7ccc(C#N)c(Cl)c7)C6(C)C)cc5)CC4)cc3C2=O)cc1` [Example 773, (2S,4R)-1-((R)-2-(6-(4-(3-(4-(((1r,3r)-3-(3-chloro-4-cyanophenoxy)-2,2,4,4-tetramethylcyclobutyl)carbamoyl)phenyl)propyl)piperazin-1-yl)-1-oxoisoindolin-2-yl)-3-methylbutanoyl)-4-hydroxy-N-(4-(4-methylthiazol-5-yl)benzyl)pyrrolidine-2-carboxamide]: over 501 nM and under 25%.
